# Data taken from patent US20050271643A1, “Bacterial strains, compositions including same and probiotic use thereof” (priority 2003, published 2005).
# Test system: B. licheniformis PA
# Assay: Antibiogram by disc diffusion method
# Assay type: cell-based, Bacillus licheniformis
# Details: strain B. licheniformis PA
row,Compound,Sensitivity or resistance of the strain to the antibiotic (in words)
1,CC(C)(O/N=C(\C(=O)N[C@@H]1C(=O)N2C(C(=O)[O-])=C(C[n+]3ccccc3)CS[C@H]12)c1csc(N)n1)C(=O)O [Ceftazidim],resistant
2,Cc1onc(-c2ccccc2)c1C(=O)N[C@@H]1C(=O)N2[C@@H]1SC(C)(C)[C@@H]2C(=O)O [Oxacillin],resistant
3,CC1(C)S[C@@H]2[C@H](NC(=O)Cc3ccccc3)C(=O)N2[C@H]1C(=O)O [Benzylpenicillin],resistant
4,C[C@H]1[C@H](NC(=O)/C(=N\OC(C)(C)C(=O)O)c2csc(N)n2)C(=O)N1S(=O)(=O)O [Aztreonam],resistant
5,Polymyxin E,resistant
